Data reported in publication PMC12053997, “D-enantiomeric antibiofilm peptides effective against anaerobic Cutibacterium acnes biofilm” (Microbiology Spectrum, 2025).
Values after ≈ are worked out from the molar mass of the structure shown. Like-named read-outs stand apart in the source and are kept apart here. Where a SMILES comes first, the peptide text is derived from it. Where no end group is shown, it is not given here. [ ]: non-standard residue; d: D form.

What was measured:
[1] = tested on: C. acnes strains (C2, C5, PJI2, PJI8)
Procedure: (§1) C. acnes strains were isolated on Columbia agar containing 5% sheep blood (BioRad, Hercules, California, USA) and cultivated in Brain Heart Infusion (BHI) broth (BioRad, Hercules, California, USA) for 5 days, under anaerobic conditions using the GenBox system (Biomérieux, Marcy l’Etoile, France), at 37°C. For all assays, one colony of isolated C. acnes strains was inoculated in a 1.5 mL vial containing 1.5 mL of BHI. After 5–6 days of incubation (stationary phase reached after 4 days) at 37°C, the absorbance (at 600 nm) of the bacterial culture was adjusted to 1. The bacterial suspension was then diluted in BHI broth at 1/100 (OD: 0.01) and 1 mL of this suspension was inoculated in each well of 24- or 48-well plates.
(§2) Peptides were added to a 48-well plate at the desired concentrations in BHI medium and diluted bacteria were inoculated as described in the “Bacterial Strain Culture” section. Plates were incubated at 37°C, under anaerobic conditions using the GenBox system, for 5–6 days. The effect of the peptide on planktonic growth was determined by measuring the MIC which was defined as the concentration in the well containing the minimal amount of compound that leads to the absence of visible bacterial growth, according to Wiegand et al. ([38]). […] Finally, 48-well plates containing cultures with or without peptides were washed three times with water to remove unattached bacteria. Adhered bacteria were stained with 1 mL of 0.2% crystal violet for 20 min, then washed with water, and crystal violet was extracted with 95% ethanol (vol/vol). The quantity of biofilm (biomass) was analyzed by measuring the absorbance of the crystal violet suspension at 595 nm using the SpectroStar nano spectrophotometer (BMG Labtech, Ortenberg, Germany). The Minimal Biofilm Inhibition Concentration (MBIC) was defined as the concentration in the well containing the minimal quantity of peptide where the crystal violet absorbance, corrected by the blank, was null. Experiments were performed three independent times in technical duplicate for each strain.

[2] = tested on: C. acnes strains (C2, C5, PJI2, PJI8); experiment: microbe, parasite or virus in culture
Procedure: as §1, §2

With `CO[C@H]1/C=C/O[C@@]2(C)Oc3c(C)c(O)c4c(O)c(c(/C=N/N5CCN(C)CC5)c(O)c4c3C2=O)NC(=O)/C(C)=C\C=C\[C@H](C)[C@H](O)[C@@H](C)[C@@H](O)[C@@H](C)[C@H](OC(C)=O)[C@@H]1C` [Rifampicin, rifampicin, reference compound] the MBIC ([1]; strain C2, n=3) was 0.002 to 0.004 µg/mL, the MBIC ([1]; strain C5, n=3) was 0.008 µg/mL and the MBIC ([1]; strain PJI2, n=3) was 0.004 to 0.008 µg/mL. The MBIC ([1]; strain PJI8, n=3) was 0.008 µg/mL, the MIC ([2]; Cutibacterium acnes) was 0.008 µg/mL (≈ 9.72 nM) and the MBC ([2]; Cutibacterium acnes, strain C2, n=3) was greater than 0.064 µg/mL. For the same molecule, the MBC ([2]; Cutibacterium acnes, strain C5, n=3) was greater than 0.064 µg/mL, the MBC ([2]; Cutibacterium acnes, strain PJI2, n=3) was greater than 0.064 µg/mL and the MBC ([2]; Cutibacterium acnes, strain PJI8, n=3) was 0.008 to 0.016 µg/mL (≈ 9.72 to 19.4 nM). It also gave an MIC ([2]; strain C5, n=3) of 0.008 µg/mL (≈ 9.72 nM), an MIC ([2]; strain PJI2, n=3) of 0.008 µg/mL (≈ 9.72 nM) and an MIC ([2]; strain PJI8, n=3) of 0.008 µg/mL (≈ 9.72 nM).

Molecule `CC[C@@H](C)[C@@H](NC(=O)[C@@H](CCCNC(=N)N)NC(=O)[C@H](N)CCCCN)C(=O)N[C@H](CCCNC(=N)N)C(=O)N[C@H](Cc1c[nH]c2ccccc12)C(=O)N[C@@H](C(=O)N[C@@H](C(=O)N[C@H](CC(C)C)C(=O)N[C@H](CCCNC(=N)N)C(=O)N[C@@H](C(=O)N[C@@H](C(=O)N[C@H](CCCNC(=N)N)C(N)=O)[C@H](C)CC)C(C)C)[C@H](C)CC)C(C)C` [AB101-D] (H-[dK][dR][dI][dR][dW][dV][dI][dL][dR][dV][dI][dR]-NH2) has an MICs ([2]; strains (C2, C5, PJI2, PJI8)) of 16 to 32 µg/mL.

`CC[C@@H](C)[C@@H](NC(=O)[C@@H](CCCNC(=N)N)NC(=O)[C@@H](CCCNC(=N)N)NC(=O)[C@@H](Cc1c[nH]c2ccccc12)NC(=O)[C@@H](CCC(N)=O)NC(=O)[C@H](N)C(C)C)C(=O)N[C@@H](C(=O)N[C@@H](C(=O)N[C@H](CCCNC(=N)N)C(=O)N[C@@H](C(=O)N[C@@H](C(=O)N[C@H](CCCNC(=N)N)C(N)=O)[C@H](C)CC)C(C)C)C(C)C)[C@H](C)CC` [AB008-D] (H-[dV][dQ][dW][dR][dR][dI][dI][dV][dR][dV][dI][dR]-NH2) showed an MBIC ([1]; strains (C2, C5, PJI2, PJI8)) of 32 µg/mL and an MBC ([2]; strains (C2, C5, PJI2, PJI8)) greater than 64 µg/mL.

Molecule `CC[C@@H](C)[C@@H](NC(=O)[C@@H](C)NC(=O)[C@@H](CCCNC(=N)N)NC(=O)[C@@H](Cc1c[nH]c2ccccc12)NC(=O)[C@@H](CCC(N)=O)NC(=O)[C@H](N)C(C)C)C(=O)N[C@H](CCCNC(=N)N)C(=O)N[C@@H](C(=O)N[C@H](CCCNC(=N)N)C(=O)N[C@@H](C(=O)N[C@@H](C(=O)N[C@H](CCCNC(=N)N)C(N)=O)[C@H](C)CC)C(C)C)C(C)C` [DJK5, reference compound] (H-[dV][dQ][dW][dR][dA][dI][dR][dV][dR][dV][dI][dR]-NH2) has an MICs ([2]; strains (C2, C5, PJI2, PJI8)) of 16 to 32 µg/mL.

With “VRLIVAVRIWRR-NH2 [Peptide 1018, reference compound]” the MBIC ([1]; strain C2, crystal violet absorbance 595 nm null, n = 3 (n = 2 for 1018, AB008-D)) was 32 µg/mL, the MBIC ([1]; strain C5, crystal violet absorbance 595 nm null, n = 3 (n = 2 for 1018, AB008-D)) was 32 µg/mL and the MBIC ([1]; strain PJI2, crystal violet absorbance 595 nm null, n = 3 (n = 2 for 1018, AB008-D)) was 32 µg/mL. The MBIC ([1]; strain PJI8, crystal violet absorbance 595 nm null, n = 3 (n = 2 for 1018, AB008-D)) was 32 µg/mL, the MIC ([2]; strain C2, BHI, anaerobic, 37°C, 5–6 days, n = 3 (n = 2 for 1018, AB008-D)) was greater than 64 µg/mL and the MBC ([2]; strain C2, no colonies on blood agar after 5–6 days anaerobic, n = 3 (n = 2 for 1018, AB008-D)) was greater than 64 µg/mL. The MIC ([2]; strain C5, BHI, anaerobic, 37°C, 5–6 days, n = 3 (n = 2 for 1018, AB008-D)) was greater than 64 µg/mL, the MBC ([2]; strain C5, no colonies on blood agar after 5–6 days anaerobic, n = 3 (n = 2 for 1018, AB008-D)) was greater than 64 µg/mL and the MIC ([2]; strain PJI2, BHI, anaerobic, 37°C, 5–6 days, n = 3 (n = 2 for 1018, AB008-D)) was greater than 64 µg/mL. The MBC ([2]; strain PJI2, no colonies on blood agar after 5–6 days anaerobic, n = 3 (n = 2 for 1018, AB008-D)) was greater than 64 µg/mL, the MIC ([2]; strain PJI8, BHI, anaerobic, 37°C, 5–6 days, n = 3 (n = 2 for 1018, AB008-D)) was greater than 64 µg/mL and the MBC ([2]; strain PJI8, no colonies on blood agar after 5–6 days anaerobic, n = 3 (n = 2 for 1018, AB008-D)) was greater than 64 µg/mL.

Molecule `CC[C@@H](C)[C@@H](NC(=O)[C@@H](CCCNC(=N)N)NC(=O)[C@@H](CCCNC(=N)N)NC(=O)[C@@H](Cc1c[nH]c2ccccc12)NC(=O)[C@@H](CCC(N)=O)NC(=O)[C@H](N)C(C)C)C(=O)N[C@H](CC(C)C)C(=O)N[C@@H](C(=O)N[C@H](CCCNC(=N)N)C(=O)N[C@@H](C(=O)N[C@@H](C(=O)N[C@H](CCCNC(=N)N)C(N)=O)[C@H](C)CC)C(C)C)C(C)C` [AB009-D] (H-[dV][dQ][dW][dR][dR][dI][dL][dV][dR][dV][dI][dR]-NH2) has an MICs ([2]; strains (C2, C5, PJI2, PJI8)) of 16 to 32 µg/mL.
